Reference: US20120237937A1, “METHODS TO DETECT CANCER IN ANIMALS” (UNIVERSITY OF LOUISVILLE RESEARCH FOUNDATION, INC., priority 2009, published 2012)

How the values were obtained:
[1] = GC-MS quantification of total and 13C-enriched metabolites in paired normal and cancerous lung tissues
[2] = Time course analysis of 13C-metabolites in plasma by 1H NMR after [U-13C]-Glc infusion; type: in vivo, human; settings: 3 hrs after [U-13C]-glucose infusion, lung cancer patients
Method: The extraction was performed twice for quantitative recovery.
See Fan et al. (2008) Prog. NMR Spectrosc. 52, 69-117; Fan (1996) Prog. NMR Spectrosc 28, 161-219.
In order to determine the optimal time to sample tissue after infusing [U-^13C]-Glc into lung cancer patients, we used ^1H NMR to analyze the profiles of ^13C-labeled products in plasma samples at several time points. Other than the administered tracer itself ([U-^13C]-Glc), the major ^13C-labeled metabolite in plasma was lactate. Plasma samples were collected 0, 3, and 12 hr after [U-^13C]-Glc infusion, as described in the Patient Treatment and Sample Collection section above. Unlabeled glucose and lactate concentrations were quantified by 1-D ^1H NMR using DSS as the calibration standard. Their % ^13C enrichment was determined from the respective ^13C satellite peaks in 1-D ^1H NMR spectra. Panels A-D illustrate the time course changes in glucose and lactate concentrations as well as their % ^13C enrichment. […] The chemical shifts of lactate and Ala reflected the acidic pH of the TCA extract.

[3] = Time course of plasma 13C-glucose and 13C-lactate in SCID mice by NMR; type: in vivo, SCID mouse
Method: (§1) A 20% solution of glucose in normal saline was sterile-filtered. 100 μL of this solution, or a 1:10 dilution (2%) were injected into the tail vein of a restrained mouse without anesthesia.
Approximately 50 μL samples of blood were taken intraorbitally at timed intervals, chilled and separated into plasma and whole blood by centrifugation at 4° C. at 3,000 g for 5 minutes. Plasma was flash frozen in liquid N2 for storage prior to workup.
Twenty to thirty μl of plasma was made to 10% trichloroacetic acid (TCA) and centrifuged at 4° C., at ≧22,000 g for 20 minutes to remove denatured proteins. The polar supernatant was lyophilized to remove TCA before preparation for NMR and GC-MS analysis.
(§2) NMR spectra were recorded at 14.1 T on a Varian Inova spectrometer equipped with a 5 mm inverse triple resonance cold probe, at 20° C. 1D NMR spectra were recorded with an acquisition time of 2 s and a recycle time of 5 sec. Concentrations of metabolites and ^13C incorporation were determined by peak integration of the ^1H NMR spectra referenced to the DSS methyl groups, with correction for differential relaxation, as previously described (See, Lane et al. (2008) Biophysical Tools for Biologists. 84: 541-588; Fan et al. (2008) Progress in NMR Spectroscopy 52: 69-117; Lane et al. (2007) Metabolomics 3: 79-86.). ^1H Spectra were typically processed with zero filling to 131 k points, and apodized with an unshifted Gaussian and a 0.5 Hz line broadening exponential.
The two SCID mice were injected via the tail vein with […] [U-^13C]-glucose. Blood was sequentially taken intraorbitally, and analyzed by NMR as described in the NMR Spectroscopy section. To assess the optimal time for metabolizing the ^13C6-glucose in mice, plasma samples were taken at 15-minute intervals and processed for NMR analysis. […] The initial glucose enrichment ranged from 30 to >50% depending on the size of the mouse, which means that the plasma glucose concentration was roughly doubled immediately after the bolus [U-^13C]-glucose injection. The % enrichment for glucose decreased rapidly and asymptotically within one hour, presumably via the normal homeostatic mechanism. […] The initial rate of ^13C lactate production was approximately equal to the initial rate of glucose consumption, but then decayed after about 20 minutes.

[4] = Isotopic enrichment in SCID mouse tissue lactate and glucose by 1D 1H NMR; type: in vivo; settings: Lac at C3, Glc at C1α
Method: as §1
Mice were sacrificed at different times post glucose injection, and the following organs were dissected sequentially: lung, heart, liver, kidney, brain, spleen, and thigh muscle. Dissected tissue was flash frozen in liquid N2 within 1 minute of killing the animal.
Frozen tissues were ground in liquid N2 to <10 μm particles in a 6750 Freezer/Mill (Retsch, Inc., Newtown, Pa.) and extracted for soluble and lipidic metabolites as follows. Up to 20 mg of frozen tissue powder in 15 ml polypropylene conical centrifuge tube (Sarstedt, Newton, N.C.) containing 3 mm diameter glass beads was vigorously mixed with 2 ml of cold acetonitrile (mass spectrometry grade, stored at −20° C.) to denature proteins, followed by addition of 1.5 ml nanopure water, and 1 ml HPLC-grade chloroform (Fisher Scientific). The mixture was shaken vigorously until achieving a milky consistency followed by centrifugation at 3,000 g for 20 minutes at 4° C. to separate the polar (top), lipidic (bottom), and tissue debris layers (interface). The polar and lipidic layers were recovered sequentially and the remaining cell debris was extracted again with 0.5 ml chloroform:methanol:butylated hydroxytoluene (BHT) (2:1:1 mM) which was pooled with the lipidic fraction. All three fractions were vacuum-dried in a speedvac device (Vacufuge, Eppendorf, New York, N.Y.) and/or by lyophylization. The dry weight of tissue debris was obtained for normalization of metabolite content. The polar extracts were redissolved in 100% D2O containing 30 nmol perdeuterated DSS (2,2-dimethyl-2-silapentane-5-sulfonate, Cambridge Isotope Laboratories, Andover, Mass.) as internal chemical shift and concentration reference for NMR measurement.
as §2
The same extracts from FIG. 9 were analyzed by NMR to complement the GC-MS analysis. The ^13C enrichment into glucose/glucose-6-phosphate and lactate was determined by 1D ^1H NMR. The enrichments at 15 and 30 minutes post infusion were substantial in all tissues, and peak lactate enrichments differed according to the metabolic activity or glucose uptake rates of the different tissues (Table 7).
Lac measured at C3, G1c measured at C1α by NMR

[5] = NMR 13C-isotopomer profiling of TCA extracts of paired non-cancerous and cancerous lung tissues; settings: in vivo
Method: Lung cancer patients were recruited based on the criteria of surgical eligibility and no history of diabetes. Each patient was consented in accordance with the U.S. HIPAA regulations. The following patient protocol was approved by the Internal Review Board at the University of Louisville. Ten grams uniformly ^13C labeled glucose ([U-^13C]-Glc or ^13C6-Glc or ^13C6-Glucose) in sterile saline solution were infused i.v. over a 30 min time period into each patient in the pre-op room approximately 3 or 12 hr prior to resection. Whole blood samples were collected into a vacutainer containing the anticoagulant K3EDTA or K3-EDTA before and after [U-^13C]-Glc infusion as well as after the surgery. Additional blood samples were collected 3 and 12 hr after the [U-^13C]-Glc infusion for the 12 hr treatment cases. […] The blood samples were placed on ice immediately after collection and centrifuged at 4° C. at 3,500×g for 15 min to recover the plasma fraction. All blood samples were aliquoted and flash-frozen in liquid N2 within 30 min of collection. Potassium EDTA was used as an anti-coagulant to minimize metabolic artifacts associated with anti-coagulation; it also served to remove the influence of interfering cations such as paramagnetic Fe^3+ and Cu^2+ for NMR analysis.
All timings from first incision to cutting arteries and veins to the lung were recorded so that the period of ischemia could be determined immediately after tissue resection, excess blood was blotted from the tissue, and small pieces of non-cancerous and tumor tissue were cut by the surgeon and freeze-clamped in liquid N2 within 5 minutes of removal from the chest cavity. The freezing process arrested metabolic changes almost instantaneously. […] Non-cancerous tissue was removed at least 2 cm from the tumor margin and certified to be tumor-free by trained pathologists. Subsequent pathological evaluation also confirmed tumor status and provided the tumor stage. All samples were stored at −80° C. until further processing for analysis.
Frozen tissue samples were pulverized into <10 μm particles in liquid N2 using a Spex freezer mill (Spex CertiPrep, Inc., Metuchen, N.J.) to maximize efficiency for subsequent extraction while maintaining biochemical integrity. An aliquot of the frozen powder was lyophilized before extraction for metabolites.
Water-soluble or polar metabolites were extracted from lyophilized tissue powders (4-48 mg) in ice-cold 10% trichloroacetic acid (TCA) (v/w minimum 40/1) while leaving proteins, nucleic acids, and polysaccharides behind, as described previously (Kim et al. Antioxidants & Redox Signaling 2001, 3:361-373). The extraction was performed twice for quantitative recovery. An aliquot (150 μl) of plasma samples were made to final 10% TCA concentration to precipitate proteins and recover metabolites in the supernatant. TCA was then removed from tissue or plasma extracts by lyophilization. The dry pellet was dissolved in nanopure water and two small aliquots were lyophilized for silylation and GC-MS analysis while the remaining bulk was passed through a Chelex 100 resin column (Bio-Rad Laboratories, Inc., Hercules, Calif.) to neutralize and remove interfering multivalent cations for NMR analysis.
The ^1H reference standard, DSS (2,2-Dimethyl-2-silapentane-5-sulfonate sodium salt) was added (30 or 50 nmoles) to the TCA extracts of tissue or plasma samples, respectively. […]

[6] = system: lung tumor; assay: Response of lung lesions of patient 25b to Erlotinib; type: in vivo, human; settings: Stage I
Excerpt: The horizontal dotted line represents a ratio of 1. […] See also, Fan et al. (2009) Exp. Molec. Pathol. 87, 83-86.

SMILES: CC(O)C(=O)O (stereo not shown) [lactate]
- metabolite content of lung tissue ([1]; patient #6 (sqC, grade II), cancer tissue): 29.55 μmole/g dry weight
- metabolite content of lung tissue ([1]; patient #6 (sqC, grade II), normal tissue): 2.66 μmole/g dry weight
- metabolite content of lung tissue ([1]; patient #7 (adenoC, grade II), cancer tissue): 10.62 μmole/g dry weight
- metabolite content of lung tissue ([1]; patient #7 (adenoC, grade II), normal tissue): 11.80 μmole/g dry weight
- metabolite content of lung tissue ([1]; patient #8 (sqC, grade II-III), cancer tissue): 17.72 μmole/g dry weight
- metabolite content of lung tissue ([1]; patient #8 (sqC, grade II-III), normal tissue): 9.44 μmole/g dry weight
- metabolite content of lung tissue ([1]; patient #9 (sqC, grade II), cancer tissue): 25.31 μmole/g dry weight
- metabolite content of lung tissue ([1]; patient #9 (sqC, grade II), normal tissue): 19.52 μmole/g dry weight
- metabolite content of lung tissue ([1]; patient #10 (sqC, grade III), cancer tissue): 29.67 μmole/g dry weight
- metabolite content of lung tissue ([1]; patient #10 (sqC, grade III), normal tissue): 8.27 μmole/g dry weight
- % 13C enrichment in plasma [2]: 5-22%
- peak % 13C enrichment in plasma ([3]; SCID mice, after [U-13C]-glucose bolus): 8-12%
- time of peak 13C enrichment in plasma ([3]; SCID mice, post injection): 15 to 20 min
- % 13C isotopic enrichment in tissue ([4]; Heart, 15 min): 25%
- % 13C isotopic enrichment in tissue ([4]; Heart, 30 min): 33%
- % 13C isotopic enrichment in tissue ([4]; Kidney, 15 min): 19%
- % 13C isotopic enrichment in tissue ([4]; Kidney, 30 min): 17%
- % 13C isotopic enrichment in tissue ([4]; Liver, 15 min): 11%
- % 13C isotopic enrichment in tissue ([4]; Liver, 30 min): 13%
- % 13C isotopic enrichment in tissue ([4]; Lung N, 15 min): 20%
- % 13C isotopic enrichment in tissue ([4]; Lung N, 30 min): 17%
- % 13C isotopic enrichment in tissue ([4]; Thigh muscle, 15 min): 17%
- % 13C isotopic enrichment in tissue ([4]; Thigh muscle, 30 min): 11%

SMILES: O[13CH2][13C@H]1O[13CH](O)[13C@H](O)[13C@@H](O)[13C@@H]1O (stereo partly shown) [[U-^13C]-Glucose, uniformly ^13C labeled glucose, reference compound]
- % 13C enrichment of metabolite in lung tissue [5]: 15.5%
- apparent half-life in plasma ([3]; mouse, in vivo): 16 to 22 min
- initial % 13C enrichment in plasma ([3]; mouse, in vivo): 65%

SMILES: C#Cc1cccc(Nc2ncnc3cc(OCCOC)c(OCCOC)cc23)c1 [Erlotinib]
- response of lesion ([6]; lower lobe (LL) lesion): responded
- response of lesion ([6]; upper lobe (UL) lesion): did not
